Tests used:
[1] = target: Serine/threonine-protein kinase PAK 4 (Homo sapiens, UniProt O96013); assay: Inhibition of Pak4
[2] = target: Serine/threonine-protein kinase pim-1 (Homo sapiens, UniProt P11309); assay: Inhibition of Pim1
[3] = target: Glycogen synthase kinase-3 beta (Homo sapiens, UniProt P49841); assay: Inhibition of GSK3-beta
[4] = target: Rho-associated protein kinase 2 (Homo sapiens, UniProt O75116); assay: Inhibition of Rock2
[5] = target: Vascular endothelial growth factor receptor 2 (Homo sapiens, UniProt P35968); assay: Inhibition of KDR
Chain of Vascular endothelial growth factor receptor 2 (P35968 whole entry): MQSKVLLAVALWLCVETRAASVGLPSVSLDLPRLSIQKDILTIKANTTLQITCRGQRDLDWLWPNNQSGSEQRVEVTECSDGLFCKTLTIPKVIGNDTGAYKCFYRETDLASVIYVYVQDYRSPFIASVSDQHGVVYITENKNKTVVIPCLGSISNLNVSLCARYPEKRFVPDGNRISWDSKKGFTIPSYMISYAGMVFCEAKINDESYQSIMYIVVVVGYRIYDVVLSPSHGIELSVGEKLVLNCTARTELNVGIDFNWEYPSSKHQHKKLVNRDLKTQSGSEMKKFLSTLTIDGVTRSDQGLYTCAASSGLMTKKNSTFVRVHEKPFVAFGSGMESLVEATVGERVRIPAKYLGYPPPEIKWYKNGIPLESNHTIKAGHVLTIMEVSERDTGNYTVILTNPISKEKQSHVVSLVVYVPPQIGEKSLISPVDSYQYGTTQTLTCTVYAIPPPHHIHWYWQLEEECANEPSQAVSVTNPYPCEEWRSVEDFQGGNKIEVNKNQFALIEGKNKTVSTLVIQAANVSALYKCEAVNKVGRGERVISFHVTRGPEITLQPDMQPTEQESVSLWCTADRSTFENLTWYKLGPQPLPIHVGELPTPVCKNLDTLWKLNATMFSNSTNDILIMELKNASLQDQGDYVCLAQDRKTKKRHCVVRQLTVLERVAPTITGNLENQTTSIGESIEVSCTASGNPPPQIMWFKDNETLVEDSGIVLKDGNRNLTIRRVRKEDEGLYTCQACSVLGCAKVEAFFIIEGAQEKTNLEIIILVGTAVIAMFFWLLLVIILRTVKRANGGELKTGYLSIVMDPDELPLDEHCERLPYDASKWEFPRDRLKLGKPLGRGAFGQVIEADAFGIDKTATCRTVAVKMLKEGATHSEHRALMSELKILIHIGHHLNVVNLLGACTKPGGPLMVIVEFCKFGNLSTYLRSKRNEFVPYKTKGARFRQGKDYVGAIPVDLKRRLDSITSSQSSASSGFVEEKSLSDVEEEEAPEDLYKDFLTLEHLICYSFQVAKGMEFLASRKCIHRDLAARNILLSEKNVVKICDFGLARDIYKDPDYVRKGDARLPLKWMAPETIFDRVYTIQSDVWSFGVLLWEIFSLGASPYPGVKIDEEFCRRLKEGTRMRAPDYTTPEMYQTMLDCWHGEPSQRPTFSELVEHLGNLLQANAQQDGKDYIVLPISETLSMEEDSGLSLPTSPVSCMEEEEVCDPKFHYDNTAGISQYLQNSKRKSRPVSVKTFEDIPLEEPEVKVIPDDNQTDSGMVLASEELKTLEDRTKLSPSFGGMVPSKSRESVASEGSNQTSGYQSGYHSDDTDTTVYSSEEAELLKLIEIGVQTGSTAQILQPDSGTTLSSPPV

[6] = target: Tyrosine-protein kinase JAK2 (Homo sapiens, UniProt O60674); assay: Inhibition of JAK2
Chain of Tyrosine-protein kinase JAK2 (O60674 whole entry): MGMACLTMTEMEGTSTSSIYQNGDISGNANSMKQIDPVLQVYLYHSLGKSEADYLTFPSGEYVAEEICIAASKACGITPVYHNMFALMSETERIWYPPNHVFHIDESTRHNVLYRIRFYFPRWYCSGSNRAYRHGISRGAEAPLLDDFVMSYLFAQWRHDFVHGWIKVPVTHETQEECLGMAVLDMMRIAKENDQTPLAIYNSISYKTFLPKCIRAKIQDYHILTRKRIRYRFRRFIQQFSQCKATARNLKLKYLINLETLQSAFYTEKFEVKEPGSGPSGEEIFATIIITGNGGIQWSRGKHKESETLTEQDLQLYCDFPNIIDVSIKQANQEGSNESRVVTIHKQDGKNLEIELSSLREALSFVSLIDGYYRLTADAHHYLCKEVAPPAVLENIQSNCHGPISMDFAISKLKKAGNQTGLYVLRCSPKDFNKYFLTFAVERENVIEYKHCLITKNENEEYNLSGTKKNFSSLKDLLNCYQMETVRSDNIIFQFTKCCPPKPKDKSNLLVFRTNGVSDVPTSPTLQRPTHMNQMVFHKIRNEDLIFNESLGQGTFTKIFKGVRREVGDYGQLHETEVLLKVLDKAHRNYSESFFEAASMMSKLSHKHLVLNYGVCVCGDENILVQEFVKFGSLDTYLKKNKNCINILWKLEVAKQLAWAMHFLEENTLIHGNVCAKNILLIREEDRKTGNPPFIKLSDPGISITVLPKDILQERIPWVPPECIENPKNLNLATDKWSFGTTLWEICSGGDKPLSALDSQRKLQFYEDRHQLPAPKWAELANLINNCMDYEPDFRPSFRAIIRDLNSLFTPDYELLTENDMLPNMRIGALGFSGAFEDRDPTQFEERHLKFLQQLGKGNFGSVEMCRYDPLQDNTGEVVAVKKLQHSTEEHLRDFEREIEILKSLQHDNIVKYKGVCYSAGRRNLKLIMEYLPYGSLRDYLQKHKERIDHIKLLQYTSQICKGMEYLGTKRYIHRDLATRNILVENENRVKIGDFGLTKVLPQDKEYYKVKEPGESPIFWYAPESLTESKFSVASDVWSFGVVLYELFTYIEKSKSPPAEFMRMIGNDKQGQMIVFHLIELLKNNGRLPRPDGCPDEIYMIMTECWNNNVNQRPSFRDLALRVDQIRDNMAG

[7] = target: Epidermal growth factor receptor (Homo sapiens, UniProt P00533); assay: Inhibition of EGFR

Chain of Serine/threonine-protein kinase PAK 4 (O96013 whole entry): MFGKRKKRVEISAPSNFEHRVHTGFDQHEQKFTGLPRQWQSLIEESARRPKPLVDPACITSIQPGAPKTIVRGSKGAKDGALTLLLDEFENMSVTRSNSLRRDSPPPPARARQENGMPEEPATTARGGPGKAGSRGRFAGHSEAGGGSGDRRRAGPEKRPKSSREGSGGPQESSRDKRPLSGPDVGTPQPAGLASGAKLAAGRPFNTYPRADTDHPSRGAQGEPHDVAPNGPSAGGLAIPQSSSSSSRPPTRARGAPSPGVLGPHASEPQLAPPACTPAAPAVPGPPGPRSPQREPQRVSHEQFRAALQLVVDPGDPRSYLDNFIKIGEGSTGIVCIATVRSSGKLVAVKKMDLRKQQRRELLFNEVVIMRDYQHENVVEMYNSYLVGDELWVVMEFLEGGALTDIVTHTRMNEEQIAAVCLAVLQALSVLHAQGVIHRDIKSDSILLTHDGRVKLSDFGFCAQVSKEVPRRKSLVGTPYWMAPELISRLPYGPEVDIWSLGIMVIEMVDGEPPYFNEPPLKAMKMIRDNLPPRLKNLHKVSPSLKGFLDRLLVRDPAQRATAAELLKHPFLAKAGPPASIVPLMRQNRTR
Chain of Glycogen synthase kinase-3 beta (P49841 whole entry): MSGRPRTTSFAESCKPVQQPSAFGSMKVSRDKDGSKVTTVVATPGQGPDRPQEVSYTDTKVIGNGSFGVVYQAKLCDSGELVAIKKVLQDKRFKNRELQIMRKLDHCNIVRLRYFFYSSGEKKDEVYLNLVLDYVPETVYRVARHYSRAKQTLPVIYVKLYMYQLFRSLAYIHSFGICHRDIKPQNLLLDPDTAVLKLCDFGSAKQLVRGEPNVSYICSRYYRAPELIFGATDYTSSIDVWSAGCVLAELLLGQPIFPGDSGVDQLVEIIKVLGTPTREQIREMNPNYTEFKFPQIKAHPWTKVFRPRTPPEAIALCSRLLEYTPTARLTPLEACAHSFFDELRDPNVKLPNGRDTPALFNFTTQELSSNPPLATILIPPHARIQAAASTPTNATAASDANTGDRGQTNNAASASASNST
Chain of Rho-associated protein kinase 2 (O75116 whole entry): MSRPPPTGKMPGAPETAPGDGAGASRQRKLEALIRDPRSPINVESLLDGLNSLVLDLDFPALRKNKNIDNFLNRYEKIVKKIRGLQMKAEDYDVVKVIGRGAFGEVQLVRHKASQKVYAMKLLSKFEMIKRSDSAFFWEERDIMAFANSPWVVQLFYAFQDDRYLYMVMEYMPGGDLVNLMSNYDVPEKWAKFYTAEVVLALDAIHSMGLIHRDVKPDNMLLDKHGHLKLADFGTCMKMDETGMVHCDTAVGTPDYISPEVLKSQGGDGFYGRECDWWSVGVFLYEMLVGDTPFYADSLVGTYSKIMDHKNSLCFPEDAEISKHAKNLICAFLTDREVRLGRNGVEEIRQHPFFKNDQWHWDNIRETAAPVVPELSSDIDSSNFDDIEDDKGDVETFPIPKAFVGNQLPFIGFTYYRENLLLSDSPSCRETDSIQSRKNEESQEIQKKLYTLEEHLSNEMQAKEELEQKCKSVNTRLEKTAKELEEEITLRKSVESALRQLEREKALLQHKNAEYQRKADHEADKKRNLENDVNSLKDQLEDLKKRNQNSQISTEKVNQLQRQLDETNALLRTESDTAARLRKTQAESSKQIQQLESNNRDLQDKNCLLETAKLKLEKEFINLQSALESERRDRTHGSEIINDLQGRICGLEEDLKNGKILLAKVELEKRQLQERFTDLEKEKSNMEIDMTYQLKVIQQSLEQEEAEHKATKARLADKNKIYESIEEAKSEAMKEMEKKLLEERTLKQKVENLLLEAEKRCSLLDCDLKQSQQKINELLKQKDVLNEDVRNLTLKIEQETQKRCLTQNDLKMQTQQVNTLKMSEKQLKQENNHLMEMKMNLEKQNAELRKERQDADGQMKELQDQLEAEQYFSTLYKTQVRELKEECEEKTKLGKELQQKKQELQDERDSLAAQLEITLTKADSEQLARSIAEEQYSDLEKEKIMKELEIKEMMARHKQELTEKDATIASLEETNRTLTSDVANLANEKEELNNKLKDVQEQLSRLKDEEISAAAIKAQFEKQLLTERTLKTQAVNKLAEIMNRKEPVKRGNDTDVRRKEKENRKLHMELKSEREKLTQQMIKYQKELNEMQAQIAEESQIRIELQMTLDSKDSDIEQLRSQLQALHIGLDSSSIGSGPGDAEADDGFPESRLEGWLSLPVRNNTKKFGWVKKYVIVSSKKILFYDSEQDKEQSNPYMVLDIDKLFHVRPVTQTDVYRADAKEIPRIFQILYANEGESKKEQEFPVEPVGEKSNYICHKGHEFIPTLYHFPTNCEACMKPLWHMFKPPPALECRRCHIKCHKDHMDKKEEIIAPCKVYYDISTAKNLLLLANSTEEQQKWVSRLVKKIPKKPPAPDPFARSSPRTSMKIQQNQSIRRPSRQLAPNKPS

Ki [1]	Ki [2]	Ki [3]	Ki [4]	Ki [5]	Ki [6]	Ki [7]	Structure (SMILES)
> 3.75 µM	0.339 µM	0.01 µM	0.006 µM	> 8.88 µM	–	–	c1ccc(-c2c(-c3ccc4[nH]ncc4c3)nc3ncccn23)cc1
> 3.75 µM	4.16 µM	2.86 µM	0.513 µM	> 8.88 µM	–	–	Cc1nc(-c2ccc3[nH]ncc3c2)cs1
> 3.75 µM	2.9 µM	4.47 µM	0.909 µM	> 8.88 µM	–	–	Nc1nc(-c2ccc3[nH]ncc3c2)cs1
> 3.75 µM	1.95 µM	3.93 µM	0.888 µM	> 8.88 µM	–	–	CCNc1nc(-c2ccc3[nH]ncc3c2)cs1
> 3.75 µM	> 8.75 µM	> 5.45 µM	0.364 µM	> 8.88 µM	–	–	c1ccc(CCNc2nc(-c3ccc4[nH]ncc4c3)cs2)cc1
> 3.75 µM	> 8.75 µM	> 5.45 µM	1.41 µM	> 8.88 µM	–	–	c1ccc(Nc2nc(-c3ccc4[nH]ncc4c3)c(-c3ccccc3)s2)cc1
> 3.75 µM	> 8.75 µM	3.4 µM	0.822 µM	> 8.88 µM	–	–	c1ccc(CNc2nc(-c3ccc4[nH]ncc4c3)c(-c3ccccc3)s2)cc1
–	2.31 µM	2.61 µM	2.48 µM	–	–	–	c1ccn2c(NC3CCCCC3)c(-c3ccc4[nH]ncc4c3)nc2c1
–	1.85 µM	–	–	–	–	–	c1cn2c(NC3CCCCC3)c(-c3ccc4[nH]ncc4c3)nc2cn1
> 3.75 µM	0.114 µM	0.019 µM	0.116 µM	> 8.88 µM	–	–	CCCCNc1c(-c2ccc3[nH]ncc3c2)nc2ncccn12
> 3.75 µM	> 8.75 µM	0.121 µM	1.56 µM	> 8.88 µM	–	–	Clc1ccc(Nc2c(-c3ccc4[nH]ncc4c3)nc3ncccn23)cc1
–	1.29 µM	0.642 µM	0.622 µM	5.34 µM	–	–	c1cn2c(NC3CCCCC3)c(-c3ccc4[nH]ncc4c3)nc2s1
> 3.75 µM	> 8.75 µM	> 5.45 µM	> 6 µM	> 8.88 µM	> 1.45 µM	0.067 µM	CN(C)CCn1cnc(-c2ccc(F)cc2)c1-c1ccc2[nH]ncc2c1
> 3.75 µM	> 8.75 µM	> 5.45 µM	> 6 µM	> 8.88 µM	> 1.45 µM	0.027 µM	Fc1ccc(-c2ncn(CCCN3CCOCC3)c2-c2ccc3[nH]ncc3c2)cc1
> 3.75 µM	> 8.75 µM	> 5.45 µM	> 6 µM	> 8.88 µM	> 1.45 µM	0.008 µM	Fc1ccc(-c2ncn(C3CCN(Cc4ccccc4)C3)c2-c2ccc3[nH]ncc3c2)cc1 (centres undefined)

— ChEMBL document CHEMBL1681650, “Scaffold oriented synthesis. Part 4: design, synthesis and biological evaluation of novel 5-substituted indazoles as potent and selective kinase inhibitors employing heterocycle forming and multicomponent reactions” (Bioorg Med Chem Lett, 2011)
